The values below come from patent publication US4431665A, “Acylated laidlomycin derivatives” (priority 1980, dated 1984).

The subject of experiment [1] is rumen microorganisms (mixed microbial population of rumen contents). In words: Enhancement of intraruminal propionic acid production, batch culture fermentation of rumen contents. Format: cell-based, bovine (rumen-fistulated). Conditions: Table 3, 9 h, 39° C., 0 μg/ml: 28.5. Summed up: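 Bovine rumen contents mixed 1:1 with buffer supplying mineral, energy and nitrogen sources, then incubated with test compounds (concentrations in μg/ml) for 9 hours at 39° C. Volatile fatty acids measured by gas-liquid chromatography; net production = post- minus pre-incubation concentration, expressed as molar percentage propionic acid.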

Experiment [2] deals with rumen contents (lactic acid accumulation). In words: Inhibition of lactic acid accumulation, second batch culture fermentation of rumen contents with glucose. The class given is cell-based, bovine (rumen fistulated). Conditions: 6 h, 6 h, 39° C.; for Accumulation of Lactic Acid - % of Control: Table 4, 360 min. Summed up: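 Bovine rumen contents mixed 1:1 with buffer containing 150 mM glucose and fermented 6 h at 39 °C. Lactic acid was quantified enzymatically through lactate dehydrogenase-driven NAD reduction, read as absorbance at 340 nm; compound concentrations in μg/ml.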

The next experiment concerns Gram-positive bacteria. Conditions: in words; J. Antibiotics 1974, 1976; cited from earlier work.
The next experiment has as its system ruminants. Conditions: in words; U.S. Pat. No. 3,794,732; cited from earlier work.

Turning to `CCC(=O)OC(C(C)C(=O)O)C(C)C1OC2(CCC(C)(C3CCC(C)(C4OC(C5OC(O)(CO)C(C)CC5C)CC4C)O3)O2)CC(O)C1C` (stereo not shown) [L., laidlomycin], the “% Propionic Acid” value in experiment [1] (1.25 μg/ml) was found to be 36.0%; in experiment [1] (5 μg/ml) it was 39.8%; in experiment [1] (20 μg/ml), 43.2%; in experiment [1] (.31 μg/ml) it was 32.1%. Moreover, the activity at 1.25 µg/mL in experiment [2] (Bos taurus, read-out: Accumulation of Lactic Acid - % of Control, Table 4, 1.25 μg/ml) turned out to be 83%. Besides, the activity at 0.31 µg/mL in experiment [2] (Bos taurus, read-out: Accumulation of Lactic Acid - % of Control, Table 4, .31 μg/ml) turned out to be 121%. Further, the “Accumulation of Lactic Acid - % of Control” value in experiment [2] (5 μg/ml) is recorded as 20 % of Control; in experiment [2] (20 μg/ml), 16 % of Control. Also, the “growth inhibition of Gram-positive bacteria” value with Gram-positive bacteria is “inhibits the growth of some Gram-positive bacteria”.
On to monensin, for which the “increasing feed utilization in ruminants” value with ruminants is recorded as “useful in increasing feed utilization in ruminants”.
